Experimental data from patent publication US7030087B2, “Synthetic approach to designed chemical structures” (priority 1996, dated 2006).

Assays:
[1] = tested on: endotoxin from E. coli 055:B5; test: Limulus amoebocyte lysate assay (E-TOXATE), endotoxin neutralization; type: biochemical
How it was run: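 Peptide preincubated with LPS 5 min at room temperature in 1:2 pyrogen-free saline (pH 6.4), then amoebocyte lysate added (E-TOXATE kit). Neutralization of endotoxin activity scored by Limulus lysate reaction; BG38L served as positive control.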

[2] = tested on: EC (endothelial cells); test: EC proliferation, 3[H]thymidine incorporation assay; type: cell-based
Method: Since the in vivo situation of tumor associated EC involves the low expression or even absence of ICAM-1, the next set of experiments aimed to study the ability to reinduce ICAM-I expression after bFBF preincubation. […] In these experiments, HUVEC were pretreated for 3 days with bFGF, subsequently PF4 was added for 3 days and, where indicated in the last 16 hours of culture 4 ng/ml TNFα was added. Human umbilical vein derived endothelial cells (HUVEC) were harvested from normal human umbilical cords by perfusion with 0.125% trypsin/EDTA as described previously. Cells were cultured in fibronectin (FN) coated tissue culture flasks in culture medium (RPMI-1640 with 20% human serum (HS), supplemented with 2 mM glutamine and 100 U/ml penicillin and 0.1 mg/ml streptomycin). Immunofluorescence using indirect PE-conjugated reagents required three separate incubations. 1×10^5 EC were fixed for 1 hour in 1% paraformaldehyde, resuspended in 20 μl appropriately diluted Mab and incubated for 1 hour on ice. Subsequently, cells were washed two times in PBS/BSA (0.1%) and incubated for another 30 minutes with biotinylated rabbit-anti-mouse Ig (Dako, Glostrup, Denmark). After another 2 washings, cells were incubated with streptavidin-phycoerythrin conjugate (Dako). Stained cells were analyzed on a FACScan flowcytometer. Data analysis was performed using PCLysys software (Becton Dickinson, Mountain View, Calif.). Statistical significance of observed differences was determined using the Student's t-test.
EC proliferation was measured using a ^3[H]thymidine incorporation assay. EC were seeded in flatbottomed 96-well tissue culture plates (5000 cells/well) and grown for 3 days, in culture medium. In some cultures the proliferation of EC was enhanced by incubation with 10 ng/ml bFGF. During the list 6 hours of the assay, the culture was pulsed with 0.5 μCi [methyl-^3H]thymidine/well. Results are expressed as the arithmetic mean counts per minute (cpm) of triplicate cultures.

[3] = tested on: HUVEC; test: Leukocyte/EC adhesion assay; type: cell-based, human; settings: bFGF 10 ng/ml + PF4 100 μg/ml
Method: Functional impact for the observed phenomena was provided by leukocyte/EC adhesion assays as described earlier (Griffioen et al. Cancer Res. 56:1111–1117, 1996). […] TNF mediated upregulation of adhesion to bFGF preincubated HUVEC in the presence of PF4 was similar to the adhesion to TNF treated control cells. PHA-activated peripheral blood T lymphocyte were adhered for 1 hour at 37° C. to TNF-α (4 ng/ml), bFGF (10 ng/ml)+PF4 (100 μg/ml) treated, or control (HUVEC). Non-adhering cells were removed and adhered cells were enumerated by an inverted microscope. Values of one representative experiment out of three are expressed as numbers of adhered cells per high power field. Statistical significance is determined by the Student's t-test.

[4] = tested on: P. aeruginosa; test: Bactericidal activity assay; type: cell-based, Pseudomonas aeruginosa type 1
How it was run: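 Log-phase P. aeruginosa type 1 (smooth clinical isolate) was grown in brain heart infusion broth, washed, and diluted 1:10 from about 3×10^8 CFU/ml into 0.08M citrate phosphate buffer at pH 5.6 or pH 7.0. Peptides were tested from about […] to 4.1×10^−9M, with LD50 derived from dose response by linear regression.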

What does the source list for platelet factor 4 [PF4]?
endotoxin neutralizing activity (in words) [1]: no endotoxin neutralizing activity; Endotoxin Neutralizing Activity, % neutralization ([1]; 5.0 × 10^−5 M peptide, 0.02 U (0.2 pg) endotoxin from E. coli 055:B5, Table 3): 0%; Endotoxin Neutralization, % neutralization ([1]; 5.0 × 10^−6 M Peptide, 0.02 U (0.2 pg) endotoxin from E. coli 055:B5, Table 4): 0%; Endotoxin Neutralization, % at the effective dose ([1]; Table 3, at the ED printed in the same cell): 23%; Endotoxin neutralization, ED, Effective M dose ([1]; Table 3, dose at which the % in brackets was found): 50 µM; Endotoxin Neutralization, % at the effective dose ([1]; Table 4, at the Ed): 0%; Endotoxin Neutralization, Ed, Effective M dose ([1]; Table 4, dose at which the % in brackets was found): 50 µM; (3H)-thymidine incorporation ([2]; expt 1, 1 μg/ml, 10 ng/ml bFGF, medium 28815 ± 1007): 28782 ± 815 cpm; (3H)-thymidine incorporation ([2]; expt 1, 1 μg/ml, no bFGF, medium 4044 ± 206): 4656 ± 456 cpm; (3H)-thymidine incorporation ([2]; expt 1, 10 μg/ml, 10 ng/ml bFGF, medium 28815 ± 1007): 23868 ± 402 cpm; (3H)-thymidine incorporation ([2]; expt 1, 10 μg/ml, no bFGF, medium 4044 ± 206): 4066 ± 351 cpm; (3H)-thymidine incorporation ([2]; expt 1, 100 μg/ml, 10 ng/ml bFGF, medium 28815 ± 1007): 4655 ± 421 cpm; (3H)-thymidine incorporation ([2]; expt 1, 100 μg/ml, no bFGF, medium 4044 ± 206): 1651 ± 172 cpm; (3H)-thymidine incorporation ([2]; expt 2 (second, r19), 1 μg/ml, 10 ng/ml bFGF, medium 52808 ± 4092): 43524 ± 5318 cpm; (3H)-thymidine incorporation ([2]; expt 2 (second, r19), 1 μg/ml, no bFGF, medium 6780 ± 713): 6171 ± 1227 cpm; (3H)-thymidine incorporation ([2]; expt 2 (second, r19), 10 μg/ml, 10 ng/ml bFGF, medium 52808 ± 4092): 8337 ± 704 cpm; (3H)-thymidine incorporation ([2]; expt 2 (second, r19), 10 μg/ml, no bFGF, medium 6780 ± 713): 3547 ± 317 cpm; (3H)-thymidine incorporation ([2]; expt 2 (second, r19), 100 μg/ml, 10 ng/ml bFGF, medium 52808 ± 4092): 1654 ± 375 cpm; (3H)-thymidine incorporation ([2]; expt 2 (second, r19), 100 μg/ml, no bFGF, medium 6780 ± 713): 947 ± 170 cpm; bFGF mediated inhibition of leukocyte adhesion to cultured HUVEC (in words) [3]: completely abolished; Bactericidal Activity, % killing ([4]; 1.2 × 10^−7 M Peptide, 5 × 105 P. aeruginosa): 0%; Bactericidal Activity, % killing at the effective dose ([4]; at the Ed for the same peptide): 19%; Bactericidal Activity, Ed, Effective M dose ([4]; dose at which the % in brackets was found): 1.5 µM
